Test results: US10676479B2, “Imidazolepyridine compounds and uses thereof” (Novartis AG, priority 2016, dated 2020)
Like-named read-outs stand apart in the source and are kept apart here.

Assays:
[1] = molecular target: EED (1-441)-His protein (Homo sapiens (Human), UniProt O75530); experiment: EED-H3K27Me3 peptide competition binding assay by AlphaScreen; details: EED Alphascreen binding Qualified assay
[2] = molecular target: wild type PRC2 (wtPRC2) complex (Homo sapiens (Human), UniProt O75530); experiment: EED LC-MS assay; type: biochemical
Method: EED LC-MS Assay Representative compounds of the present invention were serially and separately diluted 3-fold in DMSO to obtain a total of eight or twelve concentrations. […] A 6 μL solution of 3 μM of the peptide substrate H3K27Me0 (histone H3[21-44]-biotin) in reaction buffer was added to initiate each reaction. […] The data were then fit to a dose response equation using the program Helios to get the IC50 values of the test compound.

[3] = test system: H3K27 methylation in G401 cell; experiment: ELISA (H3K27 methylation) assay; type: cell-based; details: Homo sapiens, G-401, ELISA Qualified assay, 48 h, read-out: (c) IC50
Method in brief: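 G401 cells given 3-fold serial dilutions (eight or twelve points, top 20 μM) for 48 h. Lysate ELISA for H3K27 methylation normalized to H3 signal, % inhibition versus DMSO, IC50 from dose-response fit.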

[4] = EED LC-MS Qualified assay, read-out: (b) IC50

Chain of EED (1-441)-His protein (O75530 whole entry): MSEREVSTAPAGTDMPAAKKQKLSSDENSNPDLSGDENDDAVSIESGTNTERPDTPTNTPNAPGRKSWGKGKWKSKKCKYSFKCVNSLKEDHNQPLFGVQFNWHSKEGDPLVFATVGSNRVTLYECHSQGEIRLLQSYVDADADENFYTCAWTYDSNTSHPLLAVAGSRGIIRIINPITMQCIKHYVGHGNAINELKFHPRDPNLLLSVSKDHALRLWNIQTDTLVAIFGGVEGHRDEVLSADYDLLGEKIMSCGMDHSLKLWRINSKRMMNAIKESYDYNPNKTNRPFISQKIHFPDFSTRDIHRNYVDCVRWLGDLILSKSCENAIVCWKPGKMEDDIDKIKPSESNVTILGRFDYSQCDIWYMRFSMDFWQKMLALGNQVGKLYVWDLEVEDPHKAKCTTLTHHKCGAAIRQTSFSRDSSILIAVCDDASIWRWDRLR
Chain of wild type PRC2 (wtPRC2) complex (O75530 whole entry): as above
Chain of wild type PRC2 (wtPRC2) complex (Q15910 whole entry partner): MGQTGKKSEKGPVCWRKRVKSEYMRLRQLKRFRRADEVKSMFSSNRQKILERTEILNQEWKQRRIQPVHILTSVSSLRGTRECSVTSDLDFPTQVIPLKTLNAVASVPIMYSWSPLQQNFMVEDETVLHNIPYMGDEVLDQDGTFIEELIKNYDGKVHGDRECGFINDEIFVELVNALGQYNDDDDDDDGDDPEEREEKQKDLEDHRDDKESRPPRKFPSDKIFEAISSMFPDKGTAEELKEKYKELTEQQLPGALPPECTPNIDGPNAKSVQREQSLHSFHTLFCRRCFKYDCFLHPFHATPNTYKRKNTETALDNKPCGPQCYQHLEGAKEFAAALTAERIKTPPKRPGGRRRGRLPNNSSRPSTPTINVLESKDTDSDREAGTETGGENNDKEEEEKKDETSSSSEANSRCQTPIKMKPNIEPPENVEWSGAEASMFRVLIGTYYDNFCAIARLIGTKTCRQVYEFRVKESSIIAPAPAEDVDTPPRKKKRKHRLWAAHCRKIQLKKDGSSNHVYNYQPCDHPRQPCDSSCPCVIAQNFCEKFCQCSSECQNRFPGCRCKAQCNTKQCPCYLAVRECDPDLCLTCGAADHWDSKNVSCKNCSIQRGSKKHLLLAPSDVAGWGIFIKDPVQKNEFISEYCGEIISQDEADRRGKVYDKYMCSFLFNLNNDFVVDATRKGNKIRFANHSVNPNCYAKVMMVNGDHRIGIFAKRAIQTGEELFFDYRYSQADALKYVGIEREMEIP
Chain of wild type PRC2 (wtPRC2) complex (Q15022 whole entry partner): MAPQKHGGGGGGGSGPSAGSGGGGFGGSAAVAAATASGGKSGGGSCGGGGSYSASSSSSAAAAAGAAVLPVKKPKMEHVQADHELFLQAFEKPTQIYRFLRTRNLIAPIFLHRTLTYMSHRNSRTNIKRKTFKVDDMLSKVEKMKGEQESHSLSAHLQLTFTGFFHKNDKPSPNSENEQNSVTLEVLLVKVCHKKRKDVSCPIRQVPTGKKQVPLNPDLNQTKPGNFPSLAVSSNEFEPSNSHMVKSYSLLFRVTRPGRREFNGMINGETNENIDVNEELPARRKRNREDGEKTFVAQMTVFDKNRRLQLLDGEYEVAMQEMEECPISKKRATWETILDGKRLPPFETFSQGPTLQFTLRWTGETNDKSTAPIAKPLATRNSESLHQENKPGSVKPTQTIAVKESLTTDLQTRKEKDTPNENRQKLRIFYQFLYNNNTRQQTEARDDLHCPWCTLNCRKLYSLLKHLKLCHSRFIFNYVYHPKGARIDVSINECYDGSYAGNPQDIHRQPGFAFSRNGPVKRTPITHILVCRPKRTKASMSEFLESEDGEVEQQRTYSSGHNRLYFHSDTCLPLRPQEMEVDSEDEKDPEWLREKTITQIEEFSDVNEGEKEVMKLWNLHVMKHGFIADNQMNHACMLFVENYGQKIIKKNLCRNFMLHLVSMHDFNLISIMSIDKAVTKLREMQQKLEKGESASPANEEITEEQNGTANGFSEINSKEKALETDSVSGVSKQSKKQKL

| IC50 [1] [nM] | IC50 [2, 4] [nM] | IC50 [3] [nM] | SMILES | IC50 [2] [nM] |
| --- | --- | --- | --- | --- |
| 12.2 | 15 | 99.4 | CS(=O)(=O)c1ccc(-c2cnc(NCc3c(F)ccc4c3CCO4)n3cnc(Cl)c23)cc1 [Example 109, 1-chloro-N-((5-fluoro-2,3-dihydrobenzofuran-4-yl)methyl)-8-(4-(methylsulfonyl)phenyl)imidazo[1,5-c]pyrimidin-5-amine] |  |
| 7.6 | 9.6 | 23.8 | Cc1ncccc1-c1cnc(NCc2c(F)ccc3c2CCO3)n2cnc(-c3ccccc3)c12 [Example 111, N-((5-fluoro-2,3-dihydrobenzofuran-4-yl)methyl)-8-(2-methylpyridin-3-yl)-1-phenylimidazo[1,5-c]pyrimidin-5-amine] |  |
| 10.5 | 12.1 | 13.1 | Cc1ncccc1-c1ncn2c(NCc3c(F)ccc4c3CCO4)ncc(-c3ccc(S(C)(=O)=O)cc3)c12 [Example 112, N-((5-fluoro-2,3-dihydrobenzofuran-4-yl)methyl)-1-(2-methylpyridin-3-yl)-8-(4-(methylsulfonyl)phenyl)imidazo[1,5-c]pyrimidin-5-amine] |  |
| 15.2 | 38.9 | 53.1 | Cc1ccc(-c2ncn3c(NCc4c(F)ccc5c4CCO5)ncc(-c4cnc(C)nc4C)c23)c(C)n1 [Example 113, 1-(2,6-dimethylpyridin-3-yl)-8-(2,4-dimethylpyrimidin-5-yl)-N-((5-fluoro-2,3-dihydrobenzofuran-4-yl)methyl)imidazo[1,5-c]pyrimidin-5-amine] |  |
| 8.4 | 31.9 | 22.8 | Cc1ccc(-c2ncn3c(NCc4c(F)ccc5c4CCO5)ncc(-c4cnc(C)nc4C)c23)cn1 [Example 114, 8-(2,4-dimethylpyrimidin-5-yl)-N-((5-fluoro-2,3-dihydrobenzofuran-4-yl)methyl)-1-(6-methylpyridin-3-yl)imidazo[1,5-c]pyrimidin-5-amine] |  |
| 6.2 | 17.6 | 4 | Cc1ccc(-c2ncn3c(NCc4c(F)ccc5c4CCO5)ncc(-c4cccnc4C)c23)cn1 [Example 115, N-((5-fluoro-2,3-dihydrobenzofuran-4-yl)methyl)-8-(2-methylpyridin-3-yl)-1-(6-methylpyridin-3-yl)imidazo[1,5-c]pyrimidin-5-amine] |  |
| 11.4 | 19.5 | 58.5 | CC(C)Oc1ccc(-c2ncn3c(NCc4c(F)ccc5c4CCO5)ncc(-c4ccc(S(C)(=O)=O)cc4)c23)cc1 [Example 117, N-((5-fluoro-2,3-dihydrobenzofuran-4-yl)methyl)-1-(4-isopropoxyphenyl)-8-(4-(methylsulfonyl)phenyl)imidazo[1,5-c]pyrimidin-5-amine] |  |
| 4.8 | 5.5 | 2.6 | CS(=O)(=O)c1ccc(-c2cnc(NCc3c(F)ccc4c3CCO4)n3cnc(-c4ncco4)c23)cc1 [Example 118, N-((5-fluoro-2,3-dihydrobenzofuran-4-yl)methyl)-8-(4-(methylsulfonyl)phenyl)-1-(oxazol-2-yl)imidazo[1,5-c]pyrimidin-5-amine] |  |
| 18.1 | 44.7 | 18.8 | N#Cc1ncn2c(NCc3c(F)ccc4c3CCO4)ncc(-n3ccnc3)c12 [Example 119, 5-(((5-fluoro-2,3-dihydrobenzofuran-4-yl)methyl)amino)-8-(1H-imidazol-1-yl)imidazo[1,5-c]pyrimidine-1-carbonitrile] |  |
| 11.4 | 24.1 | 15.6 | Cc1ncccc1-c1cnc(NCc2c(F)ccc3c2CCO3)n2cnc(CO)c12 [Example 120, (5-(((5-fluoro-2,3-dihydrobenzofuran-4-yl)methyl)amino)-8-(2-methylpyridin-3-yl)imidazo[1,5-c]pyrimidin-1-yl)methanol] |  |

| SMILES | IC50 [1] [nM] | IC50 [2, 4] [nM] | IC50 [3] [nM] | IC50 [2] [nM] |
| --- | --- | --- | --- | --- |
| Cc1ncccc1-c1cnc(NCc2c(F)ccc3c2CCO3)n2cnc(C#C[Si](C)(C)C)c12 [Example 116, N-((5-fluoro-2,3-dihydrobenzofuran-4-yl)methyl)-8-(2-methylpyridin-3-yl)-1-((trimethylsilyl)ethynyl)imidazo[1,5-c]pyrimidin-5-amine] | 8.3 |  | 90 | 8.7 |
